Results published in patent US20230114728A1 (Venatorx Pharmaceuticals, Inc., priority 2019, published 2023).
In brackets after ≈: the same amount, converted by molar mass.

What was measured:
P. aeruginosa PBP3 = biological target: T1, P. aeruginosa PBP3 (Pseudomonas aeruginosa, UniProt G3XD46); assay: Bocillin-FL fluorescence polarization competition binding assay, P. aeruginosa PBP3; details: fluorescence polarization competition binding assay using Bocillin-FL
T1 construct: made in house
Method in brief: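 Binding of boronic acid inhibitors to purified Pseudomonas aeruginosa (PA01) PBP3 was measured by fluorescence polarization competition with Bocillin-FL, a fluorescent penicillin V. Reactions of 80 μl contained 0.75 μM PBP3 and 0.1 μM Bocillin-FL in 50 mM Hepes (pH 8.0), 300 mM NaCl and 5% (v/v) glycerol, in black 384-well plates. FP (Excitation 490 nm, Emission 520 nm) was read for up to 60 minutes. EC50 is the concentration that halves PBP-bound Bocillin-FL.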

N. gonorrhoeae WHO Z = assay: Liquid broth MIC in Fastidious broth; format: cell-based; details: Neisseria gonorrhoeae, read-out: Minimum Inhibitory Concentration, N. gonorrhoeae WHO Z
Method in brief: (§1)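 Mosaic PBP2 producers; colonies from 24 h chocolate agar, saline suspension, OD600. Fastidious broth, 2-fold dilutions, 5×10^5 CFU/mL. ~24 h, 36 °C, 5% CO2; visual MIC, <10% growth cutoff.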

N. gonorrhoeae H041 = assay: Liquid broth MIC in Fastidious broth; format: cell-based; details: Neisseria gonorrhoeae, H041, read-out: Minimum Inhibitory Concentration, N. gonorrhoeae H041
Method in brief: as §1

N. gonorrhoeae WHO Q = assay: Liquid broth MIC in Fastidious broth; format: cell-based; details: Neisseria gonorrhoeae, read-out: Minimum Inhibitory Concentration, N. gonorrhoeae WHO Q
Method in brief: as §1

[1] = system: N. gonorrhoeae ATCC 49226; assay: Liquid broth MIC in Fastidious broth; format: cell-based; details: Neisseria gonorrhoeae, ATCC49226; N. gonorrhoeae strain ATCC 49226; Fastidious broth; read-out: Minimum Inhibitory Concentration, N. gonorrhoeae ATCC 49226
Method in brief: (§2)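 Colonies were swabbed from chocolate agar after 24 h growth and standardised by optical density at 600 nm. Compounds were serially diluted twofold in Fastidious broth, and bacteria added to give 5×10^5 CFU/mL. After about 24 h at 36 °C in 5% CO2, the lowest concentration allowing under 10% growth was taken as MIC.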

N. gonorrhoeae WHO L = assay: Liquid broth MIC in Fastidious broth; format: cell-based; details: Neisseria gonorrhoeae; N. gonorrhoeae strain WHO L; Fastidious broth; read-out: Minimum Inhibitory Concentration, N. gonorrhoeae WHO L
Method in brief: as §2

N. gonorrhoeae WHO G = assay: Liquid broth MIC in Fastidious broth; format: cell-based; details: Neisseria gonorrhoeae; N. gonorrhoeae strain WHO G; Fastidious broth; read-out: Minimum Inhibitory Concentration, N. gonorrhoeae WHO G
Method in brief: as §2

N. gonorrhoeae FA1090 = assay: Liquid broth MIC in Fastidious broth; format: cell-based; details: Neisseria gonorrhoeae; N. gonorrhoeae strain FA1090; Fastidious broth; read-out: Minimum Inhibitory Concentration, N. gonorrhoeae FA1090
Method in brief: as §2

N. gonorrhoeae WHO K = assay: Liquid broth MIC in Fastidious broth; format: cell-based; details: Neisseria gonorrhoeae, read-out: Minimum Inhibitory Concentration, N. gonorrhoeae WHO K
Method in brief: as §1

T1 sequence (G3XD46 whole entry): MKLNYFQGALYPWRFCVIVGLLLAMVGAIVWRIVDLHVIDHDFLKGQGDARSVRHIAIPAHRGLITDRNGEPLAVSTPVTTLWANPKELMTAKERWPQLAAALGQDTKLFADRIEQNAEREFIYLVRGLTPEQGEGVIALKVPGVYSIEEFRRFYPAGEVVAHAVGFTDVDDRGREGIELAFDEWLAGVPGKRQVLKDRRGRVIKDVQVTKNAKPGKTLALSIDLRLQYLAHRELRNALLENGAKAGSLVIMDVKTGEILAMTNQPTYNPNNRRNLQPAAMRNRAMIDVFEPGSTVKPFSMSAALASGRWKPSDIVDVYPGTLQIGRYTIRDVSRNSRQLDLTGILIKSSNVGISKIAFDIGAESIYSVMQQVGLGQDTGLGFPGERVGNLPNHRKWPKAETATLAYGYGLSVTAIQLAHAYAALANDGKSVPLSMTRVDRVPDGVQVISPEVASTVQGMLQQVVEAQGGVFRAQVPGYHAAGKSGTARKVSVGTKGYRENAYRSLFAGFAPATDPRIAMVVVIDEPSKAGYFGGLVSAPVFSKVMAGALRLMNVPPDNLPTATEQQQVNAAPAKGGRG

| SMILES | P. aeruginosa PBP3 Potency (P. aeruginosa PBP3) | MIC (N. gonorrhoeae WHO Z) [µg/mL] | MIC (N. gonorrhoeae H041) [µg/mL] | MIC (N. gonorrhoeae WHO Q) [µg/mL] | MIC [1] [µg/mL] | MIC (N. gonorrhoeae WHO L) [µg/mL] | MIC (N. gonorrhoeae WHO G) [µg/mL] | MIC (N. gonorrhoeae FA1090) [µg/mL] | MIC (N. gonorrhoeae WHO K) [µg/mL] |
| --- | --- | --- | --- | --- | --- | --- | --- | --- | --- |
| CCN1CCN(C(=O)N[C@H](C(=O)N[C@H]2Cc3cccc(C(=O)O)c3OB2O)c2ccc(C(=O)O)cc2Cl)C(=O)C1=O (single isomer, unassigned) [Example 152] | D (D represents a potency <10 μM) | 4 to 8 (≈ 6.82 to 13.6 µM) | 16 to 32 (≈ 27.3 to 54.5 µM) | 16 to 32 (≈ 27.3 to 54.5 µM) | 16 to 32 (≈ 27.3 to 54.5 µM) | > 64 | 4 to 8 (≈ 6.82 to 13.6 µM) | 1 to 2 (≈ 1.7 to 3.41 µM) | 16 to 32 (≈ 27.3 to 54.5 µM) |
| CCN1CCN(C(=O)N[C@@H](C(=O)N[C@H]2Cc3cccc(C(=O)O)c3OB2O)c2ccc(C(=O)O)c(Cl)c2)C(=O)C1=O (single isomer, unassigned) [Example 154] | D (D represents a potency <10 μM) | 0.25 to 0.5 (≈ 0.426 to 0.852 µM) | 1 to 2 (≈ 1.7 to 3.41 µM) | 1 to 2 (≈ 1.7 to 3.41 µM) | 1 to 2 (≈ 1.7 to 3.41 µM) | 4 to 8 (≈ 6.82 to 13.6 µM) | 0.25 to 0.5 (≈ 0.426 to 0.852 µM) | < 0.125 | 1 to 2 (≈ 1.7 to 3.41 µM) |
| CCN1CCN(C(=O)N[C@H](C(=O)N[C@H]2Cc3cccc(C(=O)O)c3OB2O)c2ccc(C(=O)O)c(Cl)c2)C(=O)C1=O (single isomer, unassigned) [Example 155] | D (D represents a potency <10 μM) | 1 to 2 (≈ 1.7 to 3.41 µM) | 4 to 8 (≈ 6.82 to 13.6 µM) | 1 to 2 (≈ 1.7 to 3.41 µM) | 1 to 2 (≈ 1.7 to 3.41 µM) | 16 to 32 (≈ 27.3 to 54.5 µM) | 0.25 to 0.5 (≈ 0.426 to 0.852 µM) | < 0.125 | 1 to 2 (≈ 1.7 to 3.41 µM) |
| NCCN1CCN(C(=O)N[C@H](C(=O)N[C@H]2Cc3cccc(C(=O)O)c3OB2O)c2cc(F)c(O)c(F)c2)C(=O)C1=O (single isomer, unassigned) [Example 158] | C (C represents a potency between 10 and 30 μM) | > 64 | > 64 | > 64 | > 64 | > 64 | 16 to 32 (≈ 27.8 to 55.6 µM) | 4 to 8 (≈ 6.95 to 13.9 µM) | > 64 |
| NCCN1CCN(C(=O)N[C@@H](C(=O)N[C@H]2Cc3cccc(C(=O)O)c3OB2O)c2cc(F)c(O)c(F)c2)C(=O)C1=O (single isomer, unassigned) [Example 159] | D (D represents a potency <10 μM) | > 64 | > 64 | > 64 | 16 to 32 (≈ 27.8 to 55.6 µM) | > 64 | 4 to 8 (≈ 6.95 to 13.9 µM) | 1 to 2 (≈ 1.74 to 3.48 µM) | > 64 |
| NCCN1CCN(C(=O)N[C@H](C(=O)N[C@H]2Cc3cccc(C(=O)O)c3OB2O)c2cc(Cl)c(O)c(Cl)c2)C(=O)C1=O (single isomer, unassigned) [Example 165] | D (D represents a potency <10 μM) | > 64 | > 64 | > 64 | > 64 | > 64 | > 64 | 4 to 8 (≈ 6.58 to 13.2 µM) | > 64 |
| NCCN1CCN(C(=O)N[C@H](C(=O)N[C@H]2Cc3cccc(C(=O)O)c3OB2O)c2cc(F)c(O)c(F)c2F)C(=O)C1=O (single isomer, unassigned) [Example 167] | D (D represents a potency <10 μM) | > 64 | > 64 | > 64 | 16 to 32 (≈ 27 to 53.9 µM) | > 64 | 16 to 32 (≈ 27 to 53.9 µM) | 1 to 2 (≈ 1.69 to 3.37 µM) | > 64 |
| NCCN1CCN(C(=O)N[C@@H](C(=O)N[C@H]2Cc3cccc(C(=O)O)c3OB2O)c2cc(F)c(O)c(F)c2F)C(=O)C1=O (single isomer, unassigned) [Example 168] | D (D represents a potency <10 μM) | 16 to 32 (≈ 27 to 53.9 µM) | > 64 | 16 to 32 (≈ 27 to 53.9 µM) | 4 to 8 (≈ 6.74 to 13.5 µM) | 16 to 32 (≈ 27 to 53.9 µM) | 1 to 2 (≈ 1.69 to 3.37 µM) | 0.25 to 0.5 (≈ 0.421 to 0.843 µM) | 16 to 32 (≈ 27 to 53.9 µM) |
| NCCN1CCN(C(=O)N[C@H](C(=O)N[C@H]2Cc3cccc(C(=O)O)c3OB2O)c2ccc(O)c(F)c2F)C(=O)C1=O (single isomer, unassigned) [Example 169] | C (C represents a potency between 10 and 30 μM) | > 64 | > 64 | > 64 | > 64 | > 64 | > 64 | 4 to 8 (≈ 6.95 to 13.9 µM) | > 64 |
| NCCN1CCN(C(=O)N[C@@H](C(=O)N[C@H]2Cc3cccc(C(=O)O)c3OB2O)c2ccc(O)c(F)c2F)C(=O)C1=O (single isomer, unassigned) [Example 170] | D (D represents a potency <10 μM) | > 64 | > 64 | > 64 | 4 to 8 (≈ 6.95 to 13.9 µM) | > 64 | 4 to 8 (≈ 6.95 to 13.9 µM) | 0.25 to 0.5 (≈ 0.435 to 0.869 µM) | > 64 |
| NCCN1CCN(C(=O)N[C@@H](C(=O)N[C@H]2Cc3ccc(F)c(C(=O)O)c3OB2O)c2cc(F)c(O)c(O)c2Cl)C(=O)C1=O (single isomer, unassigned) [Example 179] | D (D represents a potency <10 μM) | > 64 | > 64 | > 64 | > 64 | > 64 | 16 to 32 (≈ 25.6 to 51.1 µM) | 16 to 32 (≈ 25.6 to 51.1 µM) | > 64 |
| NCCCN1CCN(C(=O)N[C@@H](C(=O)N[C@H]2Cc3ccc(F)c(C(=O)O)c3OB2O)c2cc(F)c(O)c(O)c2Cl)C(=O)C1=O (single isomer, unassigned) [Example 180] | D (D represents a potency <10 μM) | > 64 | > 64 | > 64 | 16 to 32 (≈ 25 to 50 µM) | > 64 | 16 to 32 (≈ 25 to 50 µM) | 4 to 8 (≈ 6.25 to 12.5 µM) | > 64 |
| NS(=O)(=O)c1cccc(C(NC(=O)N2CCN(CCF)C(=O)C2=O)C(=O)N[C@H]2Cc3cccc(C(=O)O)c3OB2O)c1 (stereo partly drawn) [Example 100, (3R)-3-(2-(4-(2-fluoroethyl)-2,3-dioxopiperazine-1-carboxamido)-2-(3-sulfamoylphenyl)acetamido)-2-hydroxy-3,4-dihydro-2H-benzo[e][1,2]oxaborinine-8-carboxylic acid] | D (D represents a potency <10 μM) | 16 to 32 (≈ 26.4 to 52.9 µM) | 16 to 32 (≈ 26.4 to 52.9 µM) | 16 to 32 (≈ 26.4 to 52.9 µM) | 16 to 32 (≈ 26.4 to 52.9 µM) | > 64 | 1 to 2 (≈ 1.65 to 3.3 µM) | 0.25 to 0.5 (≈ 0.413 to 0.826 µM) | 16 to 32 (≈ 26.4 to 52.9 µM) |
